In patent US9663526B2, “Aminopyrimidinyl compounds” (Pfizer Inc., priority 2014, dated 2017) one finds IC50 data, which are given here for nine compounds.

Structures are written as SMILES. Like-named read-outs stand apart in the source and are kept apart here. Some results are limits rather than exact numbers.

Test [1] concerns interferon alpha signalling (TYK2 and JAK1), STAT3 phosphorylation. Put plainly: Human whole blood INFα induced STAT3 phosphorylation assay.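 Note: flow cytometry with anti-pSTAT3 staining, signal as percent-positive × mean fluorescence, baseline from unstimulated wells, 11-point dilution series, IC50 as inhibition of pSTAT3.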 Format: cell-based. The conditions noted are these: compound 60 minutes at 37° C., IFNα 5000 U/ml for 15 minutes, pSTAT3 in lymphocyte population by flow cytometry, read-out: HWB IFN alpha IC50. (In flow cytometry, cells or beads pass a laser one at a time.)

Test [2] deals with recombinant human kinase domain of JAK3 (Homo sapiens (Human), UniProt P52333). Put plainly: JAK Caliper enzyme assay at 1 mM ATP (JAK3).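 Note: microfluidic mobility-shift readout of synthetic peptide phosphorylation, percent product converted from peak heights, normalized to DMSO-only wells as uninhibited baseline, room temperature incubation.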 Format: biochemical. The conditions noted are these: 1 mM ATP; read-out: IC50 (nM) JAK3.
The target of test [3] is recombinant human kinase domain of TYK2 (Homo sapiens (Human), UniProt P29597). Briefly: JAK Caliper enzyme assay at 1 mM ATP (TYK2).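 Note: microfluidic mobility-shift readout of synthetic peptide phosphorylation by TYK2, tuned to 20–30% conversion at room temperature, reaction stopped with EDTA, DMSO-only wells as uninhibited baseline.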 Format: biochemical.
The target in test [4] is recombinant human kinase domain of JAK2 (Homo sapiens (Human), UniProt O60674). Put plainly: JAK Caliper enzyme assay at 1 mM ATP (JAK2).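 Note: microfluidic mobility-shift read-out of fluorescent synthetic peptide phosphorylation, percent product converted from peak heights, room temperature, DMSO-only wells as uninhibited baseline, inhibition curve fit.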 Format: biochemical.
Test [5] has as its target recombinant human kinase domain of JAK1 (Homo sapiens (Human), UniProt P23458). Briefly: JAK Caliper enzyme assay at 1 mM ATP (JAK1).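 Note: microfluidic mobility-shift readout of synthetic fluorescent peptide phosphorylation, percent product converted from peak height, inhibition relative to DMSO-only wells as uninhibited baseline, room temperature incubation.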 Format: biochemical. The conditions noted are these: 1 mM ATP; read-out: IC50 (nM) JAK1.
Where [6] appears, read: 1 mM ATP, read-out: IC50 (nM) TYK2.

Chain of recombinant human kinase domain of TYK2 (P29597 897-1176): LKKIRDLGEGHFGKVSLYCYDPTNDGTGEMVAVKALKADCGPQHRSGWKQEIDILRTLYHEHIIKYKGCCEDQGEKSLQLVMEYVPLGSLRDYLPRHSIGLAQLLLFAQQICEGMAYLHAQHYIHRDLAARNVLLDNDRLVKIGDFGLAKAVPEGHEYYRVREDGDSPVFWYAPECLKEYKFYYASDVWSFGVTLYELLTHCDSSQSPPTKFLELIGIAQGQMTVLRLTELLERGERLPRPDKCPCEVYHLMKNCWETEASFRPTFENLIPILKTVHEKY
Chain of recombinant human kinase domain of JAK2 (O60674 849-1124): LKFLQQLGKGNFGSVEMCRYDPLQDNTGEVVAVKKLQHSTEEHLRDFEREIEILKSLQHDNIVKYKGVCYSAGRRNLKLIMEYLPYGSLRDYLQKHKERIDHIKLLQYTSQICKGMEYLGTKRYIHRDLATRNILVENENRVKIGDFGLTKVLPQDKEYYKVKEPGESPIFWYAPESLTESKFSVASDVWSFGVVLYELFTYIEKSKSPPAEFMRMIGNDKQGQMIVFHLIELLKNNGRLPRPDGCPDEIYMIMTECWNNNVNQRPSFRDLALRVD
Chain of recombinant human kinase domain of JAK3 (P52333 822-1111): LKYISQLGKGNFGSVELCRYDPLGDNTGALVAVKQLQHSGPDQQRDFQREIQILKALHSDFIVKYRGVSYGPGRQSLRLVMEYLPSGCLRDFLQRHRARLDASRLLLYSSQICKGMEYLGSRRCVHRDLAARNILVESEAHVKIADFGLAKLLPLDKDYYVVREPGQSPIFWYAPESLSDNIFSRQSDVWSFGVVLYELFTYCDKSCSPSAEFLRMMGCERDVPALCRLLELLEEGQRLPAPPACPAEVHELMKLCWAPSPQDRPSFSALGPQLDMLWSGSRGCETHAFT
Chain of recombinant human kinase domain of JAK1 (P23458 875-1153): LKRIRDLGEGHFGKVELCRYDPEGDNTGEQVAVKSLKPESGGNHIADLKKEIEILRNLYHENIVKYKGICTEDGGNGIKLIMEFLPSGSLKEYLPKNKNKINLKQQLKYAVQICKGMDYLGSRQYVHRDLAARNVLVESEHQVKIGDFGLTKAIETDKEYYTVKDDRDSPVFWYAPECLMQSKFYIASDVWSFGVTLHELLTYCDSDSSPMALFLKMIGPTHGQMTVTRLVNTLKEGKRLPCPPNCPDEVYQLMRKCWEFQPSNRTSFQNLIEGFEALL

In the case of `Cn1cc(Nc2nccc(N3C[C@H]4CC[C@@H](C3)N4Cc3ccno3)n2)cn1` [Example 56, N-(1-methyl-1H-pyrazol-4-yl)-4-[(1R,5S)-8-(1,2-oxazol-5-ylmethyl)-3,8-diazabicyclo[3.2.1]oct-3-yl]pyrimidin-2-amine], the IC50 was 0.078 µM in test [1]; above 10000 nM in test [2]; 41 nM in test [3] (setting [6]); 394 nM in test [4]; 110 nM in test [5].

Turning to `CNC(=O)c1ncc(Nc2nccc(N3C[C@H]4CC[C@@H](C3)N4C(=O)[C@@H]3CC3(F)F)n2)cc1C` (single isomer, unassigned) [Example 33], the IC50 in test [1] came to 0.122 µM; in test [2] it was 9280 nM; in test [3] (setting [6]), 15 nM; in test [4], 116 nM; in test [5], 62 nM.

For `CCNC(=O)c1ccc(Nc2nccc(N3CC4CC(C3)N4C(=O)C(F)(F)F)n2)cc1C` [Example 115, N-ethyl-2-methyl-4-({4-[6-(trifluoroacetyl)-3,6-diazabicyclo[3.1.1]hept-3-yl]pyrimidin-2-yl}amino)benzamide], the IC50 in test [1] is 0.234 µM; in test [2], above 10000 nM; in test [3] (setting [6]), 64 nM; in test [4] it was 3310 nM; in test [5], 3790 nM.

As for `O=C([C@@H]1CC1(F)F)N1[C@@H]2CC[C@H]1CN(c1ccnc(Nc3cnc(CCO)c(Cl)c3)n1)C2` [Example 18, [(1R,5S)-3-(2-{[5-chloro-6-(2-hydroxyethyl)pyridin-3-yl]amino}pyrimidin-4-yl)-3,8-diazabicyclo[3.2.1]oct-8-yl][(1S)-2,2-difluorocyclopropyl]methanone], the IC50 in test [1] was 0.338 µM; in test [2] it was above 10000 nM; in test [3] (setting [6]) it was 62 nM; in test [4], 331 nM; in test [5], 352 nM.

As for `CNC(=O)c1ncc(Nc2nccc(N3C[C@H]4CC[C@@H](C3)N4C(=O)C3CC3)n2)cc1C` [Example 6, 5-({4-[(1R,5S)-8-(cyclopropylcarbonyl)-3,8-diazabicyclo[3.2.1]oct-3-yl]pyrimidin-2-yl}amino)-N,3-dimethylpyridine-2-carboxamide], the IC50 in test [1] was 0.232 µM; in test [2], above 10000 nM; in test [3] (setting [6]) it was 36 nM; in test [4], 754 nM; in test [5], 337 nM.

For the compound `C[C@H](CO)c1ccc(Nc2nccc(N3C[C@H]4CC[C@@H](C3)N4C(=O)[C@@H]3CC3(F)F)n2)cn1` (single isomer, unassigned) [Example 12], the concentration for half-maximal inhibition (IC50) was 0.088 µM in test [1]; above 10000 nM in test [2]; 28 nM in test [3]; 80 nM in test [4]; 79 nM in test [5].

Turning to `C[C@@H](CO)c1ccc(Nc2nccc(N3C[C@H]4CC[C@@H](C3)N4C(=O)[C@@H]3CC3(F)F)n2)cn1` (single isomer, unassigned) [Example 11], the IC50 in test [1] is 0.134 µM; in test [2] it was above 10000 nM; in test [3], 40 nM; in test [4] it was 141 nM; in test [5], 139 nM.

Consider `CCNC(=O)N1[C@@H]2CC[C@H]1CN(c1ccnc(Nc3cnc(C(=O)NC)c(Cl)c3)n1)C2` [Example 75, (1R,5S)-3-(2-{[5-chloro-6-(methylcarbamoyl)pyridin-3-yl]amino}pyrimidin-4-yl)-N-ethyl-3,8-diazabicyclo[3.2.1]octane-8-carboxamide], for which the IC50 in test [1] is 0.751 µM; in test [2], above 10000 nM; in test [3] (setting [6]) it was 66 nM; in test [4], 1290 nM; in test [5], 462 nM.

Take `CCNC(=O)c1ccc(Nc2ncc(F)c(N3CC4CC(C3)N4C(=O)C(C)(C)F)n2)cc1C` [Example 112, N-ethyl-4-({5-fluoro-4-[6-(2-fluoro-2-methylpropanoyl)-3,6-diazabicyclo[3.1.1]hept-3-yl]pyrimidin-2-yl}amino)-2-methylbenzamide]: the IC50 is 0.775 µM in test [1]; above 10000 nM in test [2]; 21 nM in test [3] (setting [6]); 3040 nM in test [4]; 4070 nM in test [5].

One may read the IC50 as the concentration at which inhibition is half-maximal.
